# Results from US20220081422A1 (Janssen Biotech, Inc., priority 2019, published 2022).
# pIC50: −log10 of the molar value.
# Experiments:
# MOLM-13 cells = assay: MOLM-13 cellular assay (CellTiter-Glo cell viability); assay type: cell-based; details: Homo sapiens, MOLM-13, 72 h, 72 hours exposure, cell viability by CellTiter-Glo
# Method in brief: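 Cells seeded at 5,000/well and exposed to graded compound concentrations for 72 h at 37° C, 5% CO2 immediately after seeding. Viability read by CellTiter-Glo luminescence.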
# human DHODH = molecular target: T1, human DHODH (Homo sapiens, UniProt Q02127); assay: DHODH enzymatic assay (DCIP absorbance, end-point); assay type: biochemical; details: purified human DHODH, DCIP as final electron acceptor, end-point mode; read-out: hDHODH IC50
# T1 construct: purchased Proteros PR-0044
# T1 sequence (Q02127 whole entry): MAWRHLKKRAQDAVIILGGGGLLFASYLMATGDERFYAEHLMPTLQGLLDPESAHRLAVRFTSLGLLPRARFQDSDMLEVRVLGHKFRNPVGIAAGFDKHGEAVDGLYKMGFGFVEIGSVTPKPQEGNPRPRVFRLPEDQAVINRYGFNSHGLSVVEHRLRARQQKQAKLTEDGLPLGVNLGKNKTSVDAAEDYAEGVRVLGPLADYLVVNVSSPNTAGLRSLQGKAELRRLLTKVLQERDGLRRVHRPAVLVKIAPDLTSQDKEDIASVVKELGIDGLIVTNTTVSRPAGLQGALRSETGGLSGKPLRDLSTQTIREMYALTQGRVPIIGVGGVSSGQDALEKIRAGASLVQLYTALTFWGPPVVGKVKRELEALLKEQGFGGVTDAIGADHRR
# Method in brief: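 Purified human DHODH; end-point absorbance of DCIP reduction as terminal electron acceptor. Reaction started with substrate mix of 20 mM DHO, 5 mM CoQ6, 1 mM DCIP (substrate-solution concentrations) in […] pH 7.5, 150 mM NaCl, 0.5 mM EDTA, 0.1% Triton X-100.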
pIC50 (MOLM-13 cells),pIC50 (human DHODH),SMILES
> 8.77,10.00,"CCn1c(CO)nn(-c2cc3c(cc2F)C(=O)N(c2c(F)cccc2Cl)CN3[C@@H](C)C2CCCCC2)c1=O [Example 17, (S)-3-(2-Chloro-6-fluorophenyl)-1-(1-cyclohexylethyl)-7-(4-ethyl-3-(hydroxymethyl)-5-oxo-4,5-dihydro-1H-1,2,4-triazol-1-yl)-6-fluoro-2,3-dihydroquinazolin-4(1H)-one]"
7.64,8.22,"CCn1c(CO)nn(-c2cc3c(cc2F)C(=O)N(c2c(F)cccc2Cl)CN3CC2CCCCC2)c1=O [Example 21, 3-(2-Chloro-6-fluorophenyl)-1-(cyclohexylmethyl)-7-(4-ethyl-3-(hydroxymethyl)-5-oxo-4,5-dihydro-1H-1,2,4-triazol-1-yl)-6-fluoro-2,3-dihydroquinazolin-4(1H)-one]"
8.22,8.05,"CCn1c(CO)nn(-c2cc3c(cc2F)C(=O)N(c2c(C)cnc(OC)c2Cl)CN3C(C)C)c1=O [Example 32, 3-(3-Chloro-2-methoxy-5-methylpyridin-4-yl)-7-(4-ethyl-3-(hydroxymethyl)-5-oxo-4,5-dihydro-1H-1,2,4-triazol-1-yl)-6-fluoro-1-isopropyl-2,3-dihydroquinazolin-4(1H)-one]"
